US20260224714A1, “CYCLING LYSOSOMAL TARGETING ANTIBODY CONJUGATES” (Lycia Therapeutics, Inc., priority 2023, published 2026)

What was measured:
Format in all cases: cell-based
[1] = tested on: Alexa Fluor647 labelled human IgE; assay: Uptake assay: internalization of Alexa Fluor 647 labelled IgE in ASGPR1/2 KO HepG2 cells (Example 6); conditions: equimolar conjugate and AF647 IgE, normalized to unconjugated parent protein
Outline: (§1)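 HepG2 cells (wild type or ASGPR1/2 KO) pre-blocked with Fc receptor blocker, then exposed 2 h to conjugate precomplexed equimolar with AF647-labelled human IgE (30 min, room temperature) at 300 nM to 1.23 nM final. Median cellular AF647 by flow cytometry, normalized to unconjugated parent protein.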

[2] = tested on: Alexa Fluor647 labelled human IgE; assay: Uptake assay: internalization of Alexa Fluor 647 labelled IgE in wild type HepG2 cells (Example 6); conditions: equimolar conjugate and AF647 IgE, 2 hours, median cellular AF647 intensity by flow cytometry, normalized to unconjugated parent protein
Outline: as §1

recombinant IgE = assay: Degradation of super-stoichiometric levels of target in HepG2 cells (Example 13, Table 31); conditions: 1 nM conjugate and 25 nM IgE for three days, (A-B)/C IgE depleted relative to conjugate, average of two replicate wells
Outline: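 HepG2 cells in EMEM/10% FBS were incubated with 1 nM conjugate plus 25 nM recombinant IgE for 72 h. IgE in medium at start and end quantified by MSD/ELISA-type assay; value is molar equivalents IgE depleted per conjugate, (initial − day-3 IgE)/conjugate concentration, mean of two wells.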

human IgE = assay: Degradation of initial and subsequent dose of target in HepG2 cells (Example 12, Table 30); conditions: normalized to unconjugated; for Normalized Fluorescence Post Wash Median Green: after wash, probe-conjugated IgE added for 4 hours, subsequent dose of target; for Normalized Fluorescence Precomplex Median Deep Red: precomplexed equimolar conjugate:IgE (cathepsin-cleavable quenched fluorescent probe) added for 2 hours, initial dose of target
Outline: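 HepG2 cells exposed 2 h to conjugate precomplexed (30 min, 37 °C, equimolar) with 647-quenched-probe human IgE, acid/ice washed, then given 488-probe IgE without conjugate for 4 h. Median 647 (initial) and 488 (recycled) fluorescence by flow cytometry, normalised to unconjugated parent; mean of two wells.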

[3] = tested on: LysoLight-labelled human IgE; assay: Lysosomal degradation of LysoLight-labelled IgE in HepG2 cells, live cell imaging (Example 7); conditions: equimolar conjugate:LysoLight IgE, area under the curve of deep red fluorescence over three days, normalized to unconjugated parent protein
Outline: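 Conjugate precomplexed 30 min at room temperature with equimolar LysoLight-labelled human IgE, added to Fc-receptor-blocked HepG2 cells at final 100–1.23 nM. Red fluorescence, released on lysosomal cathepsin cleavage, imaged hourly for 72 h starting 1 h post-addition; area under the fluorescence–time curve taken as total degradation.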

HepG2 cells = assay: Externalization of conjugates from a cell following internalization (cycling), high-throughput format (Example 11); conditions: 50 nM conjugate 1 hour, stringent washes, Alexa Fluor 647-labelled a-human IgG 1 hour, FACS, normalized to unconjugated parent protein, average of two replicate wells
Outline: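 25,000 HepG2 cells incubated with conjugate for 1 h at indicated concentrations, then chilled and washed (DPBS, pH 5.2 acetate, pH 2.5 EBSS) to strip surface conjugate. Recycled conjugate captured by 1 μg/ml AF647 anti-human IgG in 37 °C EMEM for 1 h; median AF647 by flow cytometry, mean of two wells.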

Row | SMILES | Normalized Fluorescence 100 nM ASGPR KO [1] | Normalized Fluorescence 3.7 nM WT [2] | Normalized Fluorescence 100 nM WT [2] | Average Degradation (Molar equivalents) (recombinant IgE) | Normalized Fluorescence Post Wash Median Green (human IgE) | Normalized Fluorescence Precomplex Median Deep Red (human IgE) | Normalized Fluorescence 3.7 nM [3] | Normalized Fluorescence 100 nM [3] | Normalized Fluorescence (HepG2 cells)
1 | CC(=O)N[C@@H]1[C@@H](O)[C@@H](O)[C@@H](CO)O[C@@H]1c1cc(COCCOCCNC(=O)NCCCC(CCCNC(=O)NCCOCCOCc2cc([C@H]3O[C@H](CO)[C@H](O)[C@H](O)[C@H]3NC(C)=O)on2)(CCCNC(=O)NCCOCCOCc2cc([C@H]3O[C@H](CO)[C@H](O)[C@H](O)[C@H]3NC(C)=O)on2)NC(=O)CCOCCOCCOCCNS(=O)(=O)c2ccc(N3C(=O)C=CC3=O)cc2)no1 [Compound 2325] | 1.2 | 87.8 | 270.0 | 6.9 Molar equivalents | 3.6 | 3.9 | 15.8 | 3.5 | 54.2
2 | CC(=O)N[C@@H]1[C@@H](O)[C@@H](O)[C@@H](CO)O[C@@H]1CCCOCCOCCNC(=O)NCCCC(CCCNC(=O)NCCOCCOCCC[C@H]1O[C@H](CO)[C@H](O)[C@H](O)[C@H]1NC(C)=O)(CCCNC(=O)NCCOCCOCCC[C@H]1O[C@H](CO)[C@H](O)[C@H](O)[C@H]1NC(C)=O)NC(=O)NCCOCCOCCOCCN(C)C(=O)c1ccc(N2C(=O)C=CC2=O)cc1 [Compound 2322] | 1.2 | 68.5 | 214.4 | 5.2 Molar equivalents | 3.3 | 3.5 | 7.8 | 3.5 | 46.8
3 | CC(=O)N[C@@H]1[C@@H](O)[C@@H](O)[C@@H](CO)O[C@@H]1c1cn(CCOCCOCCNC(=O)NCCCC(CCCNC(=O)NCCOCCOCCn2cc([C@H]3O[C@H](CO)[C@H](O)[C@H](O)[C@H]3NC(C)=O)nn2)(CCCNC(=O)NCCOCCOCCn2cc([C@H]3O[C@H](CO)[C@H](O)[C@H](O)[C@H]3NC(C)=O)nn2)NC(=O)CCOCCOCCOCCNS(=O)(=O)c2ccc(N3C(=O)C=CC3=O)cc2)nn1 [Compound 2329] | 1.1 | 56.3 | 201.8 | 4.7 Molar equivalents | 3.0 | 3.3 | 11.6 | 3.0 | 40.3
4 | O=C(CCOCCOCCOCCNS(=O)(=O)c1ccc(N2C(=O)C=CC2=O)cc1)NC(CCCNC(=O)NCCOCCOCCOCC(F)(F)c1cncc(N[C@H]2CO[C@H](CO)[C@H](O)[C@@H]2O)n1)(CCCNC(=O)NCCOCCOCCOCC(F)(F)c1cncc(N[C@H]2CO[C@H](CO)[C@H](O)[C@@H]2O)n1)CCCNC(=O)NCCOCCOCCOCC(F)(F)c1cncc(N[C@H]2CO[C@H](CO)[C@H](O)[C@@H]2O)n1 [Compound 2327] | 1.0 | 133.1 | 268.8 | 9.2 Molar equivalents | 4.6 | 3.7 | 24.0 | 2.7 | 71.2
